Consider 34 compounds from patent US20170305943A1, “COMPOUNDS FOR THE TREATMENT OF BACTERIAL INFECTIONS” (priority 2014, published 2017).

Converted amounts (≈) assume the structure as drawn. Where only a bound is given, the exact number is not on record here.

This experiment concerns Clostridium difficile (Isolate ID ATCC 9689). The experiment in a line: Bacterial Assay: Determination of Antibacterial Activity (MIC, broth microdilution or agar dilution). It counts as cell-based. The note with it: Clostridioides difficile, ATCC9689, 48 h, read-out: C. difficile MIC Activity Range. Put shortly:
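MICs were set by CLSI broth microdilution or agar dilution for anaerobes, read visually after 48 hours at 37° C. under anaerobic gas packs. Medium was reinforced clostridial medium with 0.1% defibrinated horse blood; values are binned as A ≦1.01, B >1.0-4.0, C >4.0-16 μg/mL.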
One may read the MIC as the least concentration at which growth counts as inhibited. As to `NC(=O)c1c(F)ccc(NCCCCOc2ccc(OC(F)(F)F)cc2)c1F` [Compound 150, 2,6-difluoro-3-({4-[4-(trifluoromethoxy)phenoxy]butyl}amino) benzamide], the minimum inhibitory concentration (MIC) is 1 to 4 µg/mL (≈ 2.47 to 9.89 µM).

Turning to `CNCNC(=O)c1c(F)ccc(OC(C)c2nc(-c3ccc(OC(F)(F)F)cc3)c(Cl)o2)c1F` (stereo not shown) [Compound 35, 3-(1-{5-chloro-4-[4-(trifluoromethoxy)phenyl]-1,3-oxazol-2-yl}ethoxy)-2,6-difluoro-N-[(methylamino)methyl]benzamide], the MIC is under 1.01 µg/mL. Next, `COc1cc(CNC(=O)OCC(Oc2ccc(F)c(C(N)=O)c2F)c2nc(-c3ccc(C(F)(F)F)cc3)c(Br)o2)ccn1` (stereo not shown) [Compound 84, 2-{5-bromo-4-[4-(trifluoromethyl)phenyl]-1,3-oxazol-2-yl}-2-(3-carbamoyl-2,4-difluorophenoxy)ethyl [(2-methoxypyridin-4-yl)methyl]carbamate]: under 1.01 µg/mL; `CC(C)(C)OC(=O)NCCNC(=O)OCC(Oc1ccc(F)c(C(N)=O)c1F)c1nc(-c2ccc(C(F)(F)F)cc2)c(Br)o1` (stereo not shown) [Compound 55, 2-{5-bromo-4-[4-(trifluoromethyl)phenyl]-1,3-oxazol-2-yl}-2-(3-carbamoyl-2,4-difluorophenoxy)ethyl tert-butyl ethane-1,2-diylbiscarbamate]: 1 to 4 µg/mL (≈ 1.44 to 5.77 µM).

For the compound `NC(=O)c1c(F)ccc(OCCCCOc2cccc(S(F)(F)(F)(F)F)c2)c1F` [Compound 174, 2,6-difluoro-3-{4-[3-(pentafluoro-lambda~6~- sulfanyl)phenoxy]butoxy}benzamide], the minimal inhibitory concentration (MIC) is under 1.01 µg/mL. In the case of `NC(=O)c1c(F)ccc(OCCCCOc2cccc(Cl)c2)c1F` [Compound 140, 3-[4-(3-chlorophenoxy)butoxy]-2,6-difluorobenzamide], the MIC is 1 to 4 µg/mL (≈ 2.81 to 11.2 µM).

With `NC(=O)c1c(F)ccc(OCCCCOc2ccccc2)c1F` [Compound 151, 2,6-difluoro-3-(4-phenoxybutoxy)benzamide], the MIC was 1 to 4 µg/mL (≈ 3.11 to 12.4 µM).

`COc1ncc(-c2csc(C(C)Oc3ccc(F)c(C(N)=O)c3F)n2)s1` (stereo not shown) [Compound 23, 2,6-difluoro-3-[1-(2′-methoxy-4,5′-bi-1,3-thiazol-2-yl)ethoxy]benzamide]: the minimal inhibitory concentration (MIC) lay within 4 to 16 µg/mL (≈ 10.1 to 40.3 µM). In the case of `NC(=O)c1c(F)ccc(OC(COC(=O)NCc2ccncc2)c2nc(-c3ccc(C(F)(F)F)cc3)c(Br)o2)c1F` (stereo not shown) [Compound 63, 2-{5-bromo-4-[4-(trifluoromethyl)phenyl]-1,3-oxazol-2-yl}-2-(3-carbamoyl-2,4-difluorophenoxy)ethyl (pyridin-4-ylmethyl)carbamate], the MIC is under 1.01 µg/mL. In the case of `NC(=O)c1c(F)ccc(OCCCCOc2ccc(Cl)c(Cl)c2)c1F` [Compound 171, 3-[4-(3,4-dichlorophenoxy)butoxy]-2,6-difluorobenzamide], the MIC is under 1.01 µg/mL. The same measure for `COc1ccc(OCCCCOc2ccc(F)c(C(N)=O)c2F)cc1` [Compound 154, 2,6-difluoro-3-[4-(4-methoxyphenoxy)butoxy]benzamide]: 1 to 4 µg/mL (≈ 2.85 to 11.4 µM); for `NC(=O)c1c(F)ccc(OC(COC(=O)N2CCOCC2)c2nc(-c3ccc(C(F)(F)F)cc3)c(Br)o2)c1F` (stereo not shown) [Compound 58, 2-{5-bromo-4-[4-(trifluoromethyl)phenyl]-1,3-oxazol-2-yl}-2-(3-carbamoyl-2,4-difluorophenoxy)ethyl morpholine-4-carboxylate]: 4 to 16 µg/mL (≈ 6.45 to 25.8 µM); for `NC(=O)c1c(F)ccc(OCCCc2nc(-c3ccc(OC(F)F)cc3)cs2)c1F` [Compound 114, 3-(3-{4-[4-(difluoromethoxy)phenyl]-1,3-thiazol-2-yl}propoxy)-2,6-difluorobenzamide]: 1 to 4 µg/mL (≈ 2.27 to 9.08 µM). For the compound `NC(=O)c1c(F)ccc(OC(CCCO)c2nc(-c3ccc(C(F)(F)F)cc3)c(Br)o2)c1F` (stereo not shown) [Compound 46, 3-(1-{5-bromo-4-[4-(trifluoromethyl)phenyl]-1,3-oxazol-2-yl}-4-hydroxybutoxy)-2,6-difluorobenzamide], the minimum inhibitory concentration (MIC) was in the range of 1 to 4 µg/mL (≈ 1.87 to 7.47 µM).

`Cc1noc(CNC(=O)OCC(Oc2ccc(F)c(C(N)=O)c2F)c2nc(-c3ccc(C(F)(F)F)cc3)c(Br)o2)n1` (stereo not shown) [Compound 68, 2-{5-bromo-4-[4-(trifluoromethyl)phenyl]-1,3-oxazol-2-yl}-2-(3-carbamoyl-2,4-difluorophenoxy)ethyl [(3-methyl-1,2,4-oxadiazol-5-yl)methyl]carbamate]: the MIC lay within 1 to 4 µg/mL (≈ 1.55 to 6.19 µM). Next, `CC(Nc1ccc(F)c(C(N)=O)c1F)c1nc(-c2ccc(OC(F)(F)F)cc2)c(Br)o1` (stereo not shown) [Compound 212, 3-[(1-{5-bromo-4-[4-(trifluoromethoxy)phenyl]-1,3-oxazol-2-yl}ethyl)amino]-2,6-difluorobenzamide]: 1 to 4 µg/mL (≈ 1.98 to 7.9 µM).

Take `NC(=O)c1c(F)ccc(O[C@H](COC(=O)CCC(=O)O)c2nc(-c3ccc(C(F)(F)F)cc3)c(Br)o2)c1F` [Compound 70, 4-[(2R)-2-{5-bromo-4-[4-(trifluoromethyl)phenyl]-1,3-oxazol-2-yl}-2-(3-carbamoyl-2,4-difluorophenoxy)ethoxy]-4-oxobutanoic acid]: the MIC was under 1.01 µg/mL. The same measure for `CN(Cc1ccncc1)C(=O)OCC(Oc1ccc(F)c(C(N)=O)c1F)c1nc(-c2ccc(C(F)(F)F)cc2)c(Br)o1` (stereo not shown) [Compound 71, 2-{5-bromo-4-[4-(trifluoromethyl)phenyl]-1,3-oxazol-2-yl}-2-(3-carbamoyl-2,4-difluorophenoxy)ethyl methyl(pyridin-4-ylmethyl)carbamate]: 4 to 16 µg/mL (≈ 6.1 to 24.4 µM); for `C=CCc1oc(C(C)Oc2ccc(F)c(C(N)=O)c2F)nc1-c1ccc(OC(F)(F)F)cc1` (stereo not shown) [Compound 26, 2,6-difluoro-3-(1-{5-(prop-2-en-1-yl)-4-[4-(trifluoromethoxy)phenyl]-1,3-oxazol-2-yl}ethoxy)benzamide]: 4 to 16 µg/mL (≈ 8.54 to 34.2 µM). Turning to `Cn1c(CNC(=O)OCC(Oc2ccc(F)c(C(N)=O)c2F)c2nc(-c3ccc(C(F)(F)F)cc3)c(Br)o2)nc2ccccc21` (stereo not shown) [Compound 85, 2-{5-bromo-4-[4-(trifluoromethyl)phenyl]-1,3-oxazol-2-yl}-2-(3-carbamoyl-2,4-difluorophenoxy)ethyl [(1-methyl-1H-benzimidazol-2-yl)methyl]carbamate], the MIC was 1 to 4 µg/mL (≈ 1.44 to 5.76 µM). Regarding `NC(=O)c1c(F)ccc(OCCCCOc2ccc(F)c(F)c2)c1F` [Compound 170, 3-[4-(3,4-difluorophenoxy)butoxy]-2,6-difluorobenzamide], the MIC lay in the range of 1 to 4 µg/mL (≈ 2.8 to 11.2 µM). For `NC(=O)c1c(F)ccc(OCCCCNc2ccc(Cl)cc2)c1F` [Compound 142, 3-{4-[(4-chlorophenyl)amino]butoxy}-2,6-difluorobenzamide], the minimal inhibitory concentration (MIC) lay within 1 to 4 µg/mL (≈ 2.82 to 11.3 µM). As for `NC(=O)c1c(F)ccc(OC(CO)c2nc(-c3ccc(F)cc3F)c(Br)o2)c1F` (stereo not shown) [Compound 99, 3-{1-[5-bromo-4-(2,4-difluorophenyl)-1,3-oxazol-2-yl]-2-hydroxyethoxy}-2,6-difluorobenzamide], the MIC is under 1.01 µg/mL. Next, `NC(=O)c1c(F)ccc(OCCCCOc2cccc(C(F)(F)F)c2)c1F` [Compound 165, 2,6-difluoro-3-{4-[3-(trifluoromethyl)phenoxy]butoxy}benzamide]: 1 to 4 µg/mL (≈ 2.57 to 10.3 µM); `N#CCCCN(CCCCOc1ccc(OC(F)(F)F)cc1)c1ccc(F)c(C(N)=O)c1F` [Compound 182, 3-[(3-cyanopropyl){4-[4-(trifluoromethoxy)phenoxy]butyl)amino]-2,6-difluorobenzamide]: 4 to 16 µg/mL (≈ 8.48 to 33.9 µM); `N#Cc1ccc(OCCCCOc2ccc(F)c(C(N)=O)c2F)cc1` [Compound 177, 3-[4-(4-cyanophenoxy)butoxy]-2,6-difluorobenzamide]: 1 to 4 µg/mL (≈ 2.89 to 11.5 µM). The same measure for `CNCC(=O)OCC(Oc1ccc(F)c(C(N)=O)c1F)c1nc(-c2ccc(Cl)cc2)c(Cl)o1` (stereo not shown) [Compound 37, 2-(3-carbamoyl-2,4-difluorophenoxy)-2-[5-chloro-4-(4-chlorophenyl)-1,3-oxazol-2-yl]ethyl N-methylglycinate]: 4 to 16 µg/mL (≈ 8 to 32 µM); for `NC(=O)c1c(F)ccc(OC(CCC(O)CO)c2nc(-c3ccc(C(F)(F)F)cc3)c(Br)o2)c1F` (stereo not shown) [Compound 53, 3-[(1-{5-bromo-4-[4-(trifluoromethyl)phenyl]-1,3-oxazol-2-yl}-4,5-dihydroxypentyl)oxy]-2,6-difluorobenzamide]: 1 to 4 µg/mL (≈ 1.77 to 7.08 µM); for `NC(=O)c1c(F)ccc(OCCCCOc2ccc(Cl)cc2Cl)c1F` [Compound 137, 3-[4-(2,4-dichlorophenoxy)butoxy]-2,6-difluorobenzamide]: under 1.01 µg/mL.

With `Cc1cc(CNC(=O)OCC(Oc2ccc(F)c(C(N)=O)c2F)c2nc(-c3ccc(C(F)(F)F)cc3)c(Br)o2)ccn1` (stereo not shown) [Compound 78, 2-{5-bromo-4-[4-(trifluoromethyl)phenyl]-1,3-oxazol-2-yl}-2-(3-carbamoyl-2,4-difluorophenoxy)ethyl [(2-methylpyridin-4-yl)methyl]carbamate], the MIC was under 1.01 µg/mL.

Regarding `Cn1cc(CNC(=O)OCC(Oc2ccc(F)c(C(N)=O)c2F)c2nc(-c3ccc(C(F)(F)F)cc3)c(Br)o2)cn1` (stereo not shown) [Compound 76, 2-{5-bromo-4-[4-(trifluoromethyl)phenyl]-1,3-oxazol-2-yl}-2-(3-carbamoyl-2,4-difluorophenoxy)ethyl [(1-methyl-1H-pyrazol-4-yl)methyl]carbamate], the minimum inhibitory concentration (MIC) is under 1.01 µg/mL.

Turning to `CCOC(=O)COCC(Oc1ccc(F)c(C(N)=O)c1F)c1nc(-c2ccc(C(F)(F)F)cc2)c(Br)o1` (stereo not shown) [Compound 44, ethyl [2-{5-bromo-4-[4-(trifluoromethyl)phenyl]-1,3-oxazol-2-yl}-2-(3-carbamoyl-2,4-difluorophenoxy)ethoxy]acetate], the MIC fell in the range of 4 to 16 µg/mL (≈ 6.74 to 27 µM).

For the compound `CN(CCCCOc1ccc(C(F)(F)F)cn1)c1ccc(F)c(C(N)=O)c1F` [Compound 180, 2,6-difluoro-3-[methyl(4-{[5-(trifluoromethyl)pyridin-2-yl]oxy}butyl)amino]benzamide], the MIC lay in the range of 1 to 4 µg/mL (≈ 2.48 to 9.92 µM). The same measure for `COc1ccc(-c2nc(COc3ccc(F)c(C(N)=O)c3F)oc2-c2cccc(Cl)c2O)cc1` [Compound 204, 3-{[5-(3-chloro-2-hydroxyphenyl)-4-(4-methoxyphenyl)-1,3-oxazol-2-yl]methoxy}-2,6-difluorobenzamide]: 4 to 16 µg/mL (≈ 8.22 to 32.9 µM).
